According to PMC10671052, “Naphthyl-Substituted Indole and Pyrrole Carboxylic Acids as Effective Antibiotic Potentiators—Inhibitors of Bacterial Cystathionine γ-Lyase” (International Journal of Molecular Sciences, 2023):
Read-outs that look alike come from different tables or passages of the source.

Tests used:
[1] = system: P. aeruginosa GIMC5016:PA1840/36/2015; test: Susceptibility of isolate to main antimicrobial agents; assay type: cell-based
[2] = target: T1, human cystathionine-γ-lyase (hCSE) (Homo sapiens, UniProt P32929); test: IC50 assay: inhibition of H2S production by purified hCSE, WSP5 fluorescent probe; assay type: biochemical; settings: for IC50: purified hCSE 0.02 μM, 100 μM L-cysteine, WSP5 probe, mean ± SD
T1 construct: His6-TEV (N, cleaved yes); host or cells: E. coli
T1 sequence (P32929 whole entry): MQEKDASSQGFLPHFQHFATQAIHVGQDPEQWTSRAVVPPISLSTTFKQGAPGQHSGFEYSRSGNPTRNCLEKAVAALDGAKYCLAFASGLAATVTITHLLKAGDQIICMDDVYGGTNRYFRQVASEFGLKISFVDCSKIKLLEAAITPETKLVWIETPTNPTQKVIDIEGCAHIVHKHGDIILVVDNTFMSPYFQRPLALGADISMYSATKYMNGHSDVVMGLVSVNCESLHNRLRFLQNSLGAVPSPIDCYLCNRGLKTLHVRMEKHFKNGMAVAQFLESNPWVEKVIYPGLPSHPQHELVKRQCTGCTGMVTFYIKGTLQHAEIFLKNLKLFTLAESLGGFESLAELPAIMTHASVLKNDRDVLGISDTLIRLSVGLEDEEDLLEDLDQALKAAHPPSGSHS
Procedure: (§1) Fluorescence spectrophotometry-based inhibitory activity toward purified bCSE and hCSE was measured in a 96-well nonbinding black plate (Greiner, Kremsmunster, Austria) at 100 μL of the reaction mixture per well. bCSE and hCSE (0.02 μM) were preincubated in a thermoshaker (Biosan, Riga, Latvia) (30 °C, 300 rpm) for 40 min in 50 mM sodium phosphate buffer (pH 8.0), supplemented with 10 μM pyridoxal 5′-phosphate (Sigma-Aldrich, St. Louis, MO, USA), 0.1% of Tween 20 (Sigma-Aldrich, St. Louis, MO, USA), and 1.2 μM Washington State Probe-5 (Cayman Chemical, Ann Arbor, MI, USA) (excitation: 500 nm, emission: 530 nm) at different concentrations of a tested inhibitor. The reaction was initiated by the addition of 100 μM L-cysteine (TCI, Chennai, Tamil Nadu, India) in 50 mM sodium phosphate buffer pH 8.0 to the reaction mixture, and the enzymatic activity was monitored for 12 h using a CLARIOstar Plus instrument (BMG LABTECH GmbH, Ortenberg, Germany). The 100 µM L-cysteine concentration used in the experiments corresponds to the maximal reported intracellular concentration in bacteria. The data were normalized to the positive and negative controls, and IC50 values were obtained by fitting to a four-parameter sigmoidal curve (inhibitor vs. response, variable slope model) in GraphPad Prism 8 software (GraphPad by Dotmatics, Boston, MA, USA). Each experiment was conducted with 2–3 technical replicates. IC50 values were means of at least two independent experiments.
(§2) For the production of S. aureus cystathionine-γ-lyase (bCSE) and of human cystathionine-γ-lyase (hCSE), plasmids pSUMO:saCSE (Addgene # 54336) and pNIC28-Bsa4 (Addgene # 42365) were employed. Cultivation of a competent E. coli cell strain (Thermo Fisher Scientific, Waltham, MA, USA), transformed with a target plasmid, was carried out on a selective solid medium with kanamycin. Bacterial cells harboring the plasmid vector were cultured at 37 °C and 180 rpm until OD600 = 0.65. Then, isopropyl β-D1-thiogalactopyranoside (IPTG) was added to a final concentration of 1 mM. To obtain bCSE, the cells were cultured for 3.5 h at 37 °C; to obtain hCSE, the cells were cultured for 18–20 h at 25 °C. After centrifugation, cells were resuspended in a buffer composed of 50 mM Tris–HCl, at a pH of 8.0, and 300 mM sodium chloride. After that, the cells were lysed by ultrasonication, with a pulse duration of 15 s and an interval between pulses of 15 s. The amplitude of the ultrasonic vibrations was 50% of the maximum. After lysis, samples were centrifuged for 15 min (20,000× g at 4 ℃). The pH of the supernatant obtained after the centrifugation was adjusted to 7.5 by the addition of a 1 M solution of Tris–OH. Then, the test sample was subjected to filtration through a polyethersulfone membrane with a pore diameter of 0.22 μm.

[3] = HEK293 cytotoxicity assay (Alamar Blue); assay type: cell-based; settings: human, HEK293, 72 h
Procedure: The HEK 293 cell line was obtained from the European Collection of Authenticated Cell Cultures (ECACC, cat. # 85120602, Salisbury, UK). The cells were grown in a monolayer culture in Dulbecco’s Modified Eagle’s Medium (DMEM) (PanEco, Moscow, Russia), supplemented with 2 mM L-glutamine, 1% of a penicillin/streptomycin solution (Capricorn Scientific, Ebsdorfergrund, Germany), and 10% of heat inactivated fetal bovine serum (HyClone, Cytiva, Marlborough, MA, USA) in a humidified atmosphere containing 5% of CO2 at 37 °C (Binder, Germany). For the assay, HEK 293 cells were seeded in a 96-well plate (Corning, NY, USA) in 100 μL of the complete culture medium, at a final density of 2 × 10^3 cells/well, and were cultured for 24 h for proper attachment. Subsequently, the medium was removed, and the cells were exposed to a tested inhibitor at different concentrations for 72 h in 100 μL of the fresh complete culture medium. The sensitivity of the cells to the compounds was detected using the vital dye Alamar Blue (Invitrogen, San Diego, CA, USA). The Alamar Blue assay was performed according to the procedure described by O’Brien et al.. After incubation with the tested bCSE inhibitors, 10 μL of the Alamar Blue reagent was added into each well, the cell culture plates were returned to the humidified incubator, and the fluorescence was read after 3 h. The plates were exposed to an excitation light of 545 nm wavelength, and emission at 600 nm was measured on the CLARIOstar Plus (BMG LABTECH GmbH, Ortenberg, Germany). To determine half-maximal cytotoxic concentration (CC50), a four-parameter sigmoidal curve model (GraphPad Prism 8 software) was fitted to the measurement data.

[4] = target: S. aureus cystathionine-γ-lyase (bCSE) (Staphylococcus aureus, UniProt A0A0H3K724); test: IC50 assay: inhibition of H2S production by purified bCSE, WSP5 fluorescent probe; assay type: biochemical
S. aureus cystathionine-γ-lyase (bCSE), sequence (A0A0H3K724 entry or part of it): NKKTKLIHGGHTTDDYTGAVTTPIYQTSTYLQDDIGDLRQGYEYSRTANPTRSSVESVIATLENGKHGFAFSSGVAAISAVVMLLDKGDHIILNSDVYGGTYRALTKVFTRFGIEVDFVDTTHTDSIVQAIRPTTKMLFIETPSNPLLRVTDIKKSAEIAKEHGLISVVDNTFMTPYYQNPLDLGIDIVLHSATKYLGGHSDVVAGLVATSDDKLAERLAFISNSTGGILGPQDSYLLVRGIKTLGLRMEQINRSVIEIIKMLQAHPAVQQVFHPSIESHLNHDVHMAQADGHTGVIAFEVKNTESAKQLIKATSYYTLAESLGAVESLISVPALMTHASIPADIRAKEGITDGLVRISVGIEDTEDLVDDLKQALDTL
Procedure: as §1, §2

[5] = in vitro
Procedure: A test compound (final concentration 10 μM) was incubated at 37 °C in SGF, SIF, or human plasma for 2, 2, or 4 h, respectively. 100 μL aliquots were taken from each sample and 300 μL of acetonitrile containing an internal standard was added. […] All compounds were tested in triplicate. The percentage of a remaining compound after incubation was determined based on the chromatographic peak area of the sample after incubation and that of time zero (freshly prepared and injected) sample.

[6] = system: P. aeruginosa GIMC5016:PA1840/36/2015; test: MIC of antibiotics alone and with potentiators, clinical isolate; settings: P. aeruginosa GIMC5016:PA1840/36/2015, no potentiator
Procedure: (§3) Overnight (ON) culture of a specific strain was grown in the liquid Luria–Bertani nutrient medium (LB broth, BD Difco) for 18 h at 37 °C, with agitation at 180 rpm using an Innova 44R orbital shaker (Eppendorf, Hamburg, Germany). After a certain period, 50 µL of the ON culture was transferred into 5 mL of the LB medium and grown for 3 h at 37 °C with agitation. Growth in the liquid medium was assessed by means of turbidity of the suspension, measured using a Densi-La-Meter II densitometer (Erba Lachema s.r.o., Brno, Czech Republic). Then, the bacterial suspension was diluted to the concentration 10^6 cells/mL with sterile LB and used as a seed culture [38, 39].
(§4) For the assessment of MICs, 96-well microtiter plates were utilized at 200 µL of a medium per well. Each well was filled with 100 µL of the seed culture. After that, 10 µL of a solution of each tested synthetic compound (potentiators) was added into each experimental well. Finally, 90 µL of twofold serial dilutions of an antibiotic in a sterile LB was added into individual wells.
(§5) As a positive control, we set up wells with 100 µL of the bacterial culture and 100 µL of the sterile LB medium. […] Negative-control wells contained 200 µL of the sterile medium. The plates were incubated in a thermostat for 18–20 h at 37 °C. The bacterial growth was assessed as optical density at 600 nm on a CLARIOstar microplate reader (BMG LABTECH GmbH, Ortenberg, Germany)).

[7] = system: A. baumannii GIMC5509:ABT-52Ts19; test: as above; settings: A. baumannii GIMC5509:ABT-52Ts19, no potentiator
Procedure: as §3, §4, §5

[8] = IC50 (uM), bCSE enzymatic IC50, rounded, repeated in Table S13
[9] = IC50 (uM), bCSE enzymatic IC50, rounded, repeated in Table S14
[10] = IC50 biochemical assay bCSE, purified bCSE 0.02 μM, 100 μM L-cysteine, WSP5 probe, mean ± SD
[11] = read-out: IC50 biochemical assay hCSE
[12] = IC50 (uM), bCSE enzymatic IC50, rounded, repeated in Table S15

O=C(O)c1cn(C2CC2)c2cc(N3CCNCC3)c(F)cc2c1=O [ciprofloxacin]
susceptibility of isolate (Sensitive to / Resistant to) [1]: Resistant to

O=C(O)c1cn(Cc2ccc3ccccc3c2)c2ccccc12 [Compound 1b]
activity toward hCSE (in words) [2]: did not show noticeable activity
IC50 ([2]; IC50 biochemical assay hCSE): > 500 µM
CC50 at 72 h [3]: 423 ± 71.8 µM
activity toward bCSE (in words) [4]: did not show noticeable activity
IC50 [4, 8]: > 500 µM
IC50 [4, 9]: > 500 µM
IC50 [4, 10]: > 500 µM

O=C(O)c1cc2ccccc2n1Cc1ccc2ccccc2c1 [Compound 2b]
IC50 [2, 11]: 285 ± 14.6 µM
CC50 at 72 h ([3]; HEK293 cells): 368 ± 32.8 µM
IC50 [4, 8]: 71 µM
IC50 [4, 9]: 71 µM
IC50 [4, 12]: 71 µM
IC50 [4, 10]: 71.1 ± 4.2 µM

O=C(O)c1ccc2c(ccn2Cc2ccc3ccccc3c2)c1 [Compound 4b]
IC50 [2, 11]: > 500 µM
CC50 at 72 h ([3]; HEK293 cells): 217 ± 93.2 µM
IC50 [4, 8]: 110 µM
IC50 [4, 9]: 110 µM
IC50 [4, 12]: 110 µM
IC50 [4, 10]: 110 ± 11.7 µM

CC(C)(O/N=C(\C(=O)N[C@@H]1C(=O)N2C(C(=O)[O-])=C(C[n+]3ccccc3)CS[C@H]12)c1csc(N)n1)C(=O)O [ceftazidime]
susceptibility of isolate (Sensitive to / Resistant to) [1]: Resistant to

NCC[C@H](O)C(=O)N[C@@H]1C[C@H](N)[C@@H](O[C@H]2O[C@H](CN)[C@@H](O)[C@H](O)[C@H]2O)[C@H](O)[C@H]1O[C@H]1O[C@H](CO)[C@@H](O)[C@H](N)[C@H]1O [amikacin]
susceptibility of isolate (Sensitive to / Resistant to) [1]: Resistant to

C#CC[C@H](N)C(=O)O (racemic) [PAG, DL-propargylglycine, reference compound]
Hill slope of dose-response curve toward hCSE [2]: ~1.0
IC50 [2, 11]: 0.17 ± 0.02 µM
Hill slope of dose-response curve toward bCSE [4]: approximately two
IC50 [4, 10]: 24.3 ± 0.7 µM

O=C(O)c1cccn1Cc1cccc2ccccc12 [Compound 5a]
IC50 [2, 11]: > 500 µM
CC50 at 72 h ([3]; HEK293 cells): 460 ± 51.1 µM
IC50 [4, 8]: 289 µM
IC50 [4, 9]: 289 µM
IC50 [4, 12]: 289 µM
IC50 [4, 10]: 289 ± 30.4 µM

O=C(O)c1cn(Cc2cccc3ccccc23)c2ccccc12 [Compound 1a]
activity toward hCSE (in words) [2]: did not show noticeable activity
IC50 ([2]; IC50 biochemical assay hCSE): > 500 µM
CC50 at 72 h [3]: 432 ± 37.5 µM
activity toward bCSE (in words) [4]: did not show noticeable activity
IC50 [4, 10]: > 500 µM

CC(C)[N+](C)(CCOC(=O)C1c2ccccc2Oc2ccccc21)C(C)C [Propantheline, propantheline bromide, reference compound]
Stability in human plasma, % Remaining at 4 h ([5]; 4 h, 10 μM): 0.2%
remaining at 4 h, 10 μM ([5]; human, plasma, Stability in human plasma, % Remaining at 4 h): 0.21 ± 0.04%

Cc1nnc(SCC2=C(C(=O)O)N3C(=O)[C@@H](NC(=O)Cn4cnnn4)[C@H]3SC2)s1 [cefazolin]
susceptibility of isolate (Sensitive to / Resistant to) [1]: Resistant to

C[C@@H](O)[C@H]1C(=O)N2C(C(=O)O)=C(S[C@@H]3CN[C@H](C(=O)N(C)C)C3)[C@H](C)[C@H]12 [Meropenem, meropenem]
MIC of antibiotic alone [6]: 16 µg/mL
susceptibility of isolate (Sensitive to / Resistant to) [1]: Resistant to
MIC of antibiotic alone [7]: 64 µg/mL

CO/N=C(\C(=O)N[C@@H]1C(=O)N2C(C(=O)O)=C(CSc3nc(=O)c(=O)[nH]n3C)CS[C@H]12)c1csc(N)n1 [ceftriaxone]
susceptibility of isolate (Sensitive to / Resistant to) [1]: Resistant to

O=C(O)c1cccn1Cc1ccc2ccccc2c1 [Compound 5b]
IC50 [2, 11]: > 500 µM
CC50 at 72 h ([3]; HEK293 cells): 848 ± 72.2 µM
IC50 [4, 8]: > 500 µM
IC50 [4, 9]: > 500 µM
IC50 [4, 12]: > 500 µM
IC50 [4, 10]: > 500 µM

O=C(O)c1ccc2ccn(Cc3ccc4ccccc4c3)c2c1 [Compound 3b]
IC50 [2, 11]: > 500 µM
CC50 at 72 h ([3]; HEK293 cells): 528 ± 47.1 µM
IC50 [4, 9]: 141 µM
IC50 [4, 12]: 141 µM
IC50 [4, 10]: 148 ± 46.4 µM

CNC(C)C1CCC(N)C(OC2C(N)CC(N)C(OC3OCC(C)(O)C(NC)C3O)C2O)O1 (centres unmarked) [Gentamicin, gentamicin]
MIC of antibiotic alone [6]: > 512 µg/mL
susceptibility of isolate (Sensitive to / Resistant to) [1]: Resistant to

CO/N=C(\C(=O)N[C@@H]1C(=O)N2C(C(=O)[O-])=C(C[N+]3(C)CCCC3)CS[C@H]12)c1csc(N)n1 [Cefepim, cefepime]
MIC of antibiotic alone [6]: 256 µg/mL
susceptibility of isolate (Sensitive to / Resistant to) [1]: Resistant to
MIC of antibiotic alone [7]: > 512 µg/mL

O=C(O)c1ccc2ccn(Cc3cccc4ccccc34)c2c1 [Compound 3a]
IC50 [2, 11]: 472 ± 37.3 µM
CC50 at 72 h ([3]; HEK293 cells): 452 ± 21.5 µM
IC50 [4, 8]: 79 µM
IC50 [4, 9]: 79 µM
IC50 [4, 12]: 79 µM
IC50 [4, 10]: 79.3 ± 5.9 µM

NC[C@H]1O[C@H](O[C@H]2[C@H](O)[C@@H](O[C@H]3O[C@H](CO)[C@@H](O)[C@H](N)[C@H]3O)[C@H](N)C[C@@H]2N)[C@H](N)C[C@@H]1O [tobramycin]
susceptibility of isolate (Sensitive to / Resistant to) [1]: Resistant to

CCN1CCN(C(=O)N[C@@H](C(=O)N[C@@H]2C(=O)N3[C@@H]2SC(C)(C)[C@@H]3C(=O)O)c2ccccc2)C(=O)C1=O [piperacillin]
susceptibility of isolate (Sensitive to / Resistant to) [1]: Resistant to

COc1ccc2[nH]c([S+]([O-])Cc3ncc(C)c(OC)c3C)nc2c1 (centres unmarked) [Omeprazole, reference compound]
Stability in SIF, % Remaining at 2 h ([5]; simulated gi fluid, 2 h, 10 μM): 90.5%
remaining at 2 h, 10 μM ([5]; simulated gi fluid, Stability in SGF): < 0.1%
remaining at 2 h, 10 μM ([5]; simulated gi fluid, Stability in SIF): 90.5 ± 10%

COc1cccc2c1C(=O)c1c(O)c3c(c(O)c1C2=O)C[C@@](O)(C(=O)CO)C[C@@H]3O[C@H]1C[C@H](N)[C@H](O)[C@H](C)O1 [Doxorubicin, reference compound]
CC50 at 72 h ([3]; HEK293 cells): 1.3 ± 0.71 µM

C[C@H]1COc2c(N3CCN(C)CC3)c(F)cc3c(=O)c(C(=O)O)cn1c23 [levofloxacin]
susceptibility of isolate (Sensitive to / Resistant to) [1]: Resistant to

CO/N=C(\C(=O)N[C@@H]1C(=O)N2C(C(=O)O)=C(COC(C)=O)CS[C@H]12)c1csc(N)n1 [cefotaxime]
susceptibility of isolate (Sensitive to / Resistant to) [1]: Resistant to
